Tests used:
[1] = system: Influenza A Virus H1N1v strain A/Regensburg/D6/09 (H1N1v); type: cell-based

Row | Compound | Toxic effect on VeroE6 cell viability compared to mock control (VeroE6 cells) | Dilution at which PFU reduction reached the detection limit [1] | Total GRFT concentration at which PFU reduction reached the detection limit [1] | PFU reduction in virus infected cells ([1]; A549 cells, different dilutions/concentrations, n=3 per reading point) | Effect on VeroE6 cell viability compared to mock control (VeroE6 cells)
1 | Griffithsin [unencapsulated GRFT] | no specific toxic effect | did not reach the detection limit at 1:2 dilution | > 1.325 mg/mL | concentration dependent PFU reduction | 
2 | CO[C@H]1C[C@@H]2CC[C@@H](C)[C@@](O)(O2)C(=O)C(=O)N2CCCC[C@H]2C(=O)O[C@H]([C@H](C)C[C@@H]2CC[C@@H](O)[C@H](OC)C2)CC(=O)[C@H](C)/C=C(\C)[C@@H](O)[C@@H](OC)C(=O)[C@H](C)C[C@H](C)/C=C/C=C/C=C/1C [Rapamycin, reference compound] |  |  |  |  | slightly decreased the viability of cells
